Our source for the GI50 and TGI values is PubChem BioAssay (NCI).

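Grown in 96-well plates, cells were treated for 48 hours with each compound at five concentrations. Insufficient inhibition: endpoint recorded as highest concentration tested. The concentration for 50% growth inhibition is given as GI50. TGI marks complete inhibition of growth.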

What all share (assay): inhibition of tumour cell growth, NCI panel, 48 h
For assay [1], the system named is BT-549 breast.
Assay [2] relates to CCRF-CEM leukemia.
Assay [3] concerns EKVX NSCLC.
For assay [4], the system named is HCC-2998 colon.
The subject of assay [5] is HCT-116 colon.
For assay [6], the system named is HL-60(TB) leukemia.
The subject of assay [7] is HOP-62 NSCLC.
Assay [8] deals with OVCAR-5 ovarian.
Assay [9] has as its system RXF 393 renal.
Assay [10] concerns TK-10 renal.

For `O=C1Nc2c(ccc(Cl)c2Cl)/C1=C\c1cc(C(F)(F)F)cc(C(F)(F)F)c1`, the GI50 in [1] is 6020 nM; in assay [2], 959 nM; in assay [3] it was 1930 nM; in assay [4] it was 7.71 µM; in assay [5], 1410 nM; in [6], 1130 nM. Besides, the GI50 in assay [7] was 7.04 µM; in assay [8] it was 4.26 µM; in assay [9], 1210 nM; in [10] it was 4.37 µM. Moreover, the TGI in [1] worked out at 12.5 µM; in [2], 2.58 µM; in assay [3], 11.2 µM; in [4], 14.9 µM; in [5], 5.07 µM; in assay [6], 2.37 µM. The TGI in assay [7] came to 14.4 µM; in [8] it was 11.4 µM; in assay [9], 2.94 µM; in assay [10], 13 µM.

Regarding `Nc1nc(Cl)nc2c1ncn2C1OC(CO)C(O)C1O` (stereo not drawn), the GI50 in [1] was 16800 nM; in assay [2] it was 264 nM; in [3], over 96800 nM; in assay [4], over 21.9 µM; in assay [5], 4230 nM; in assay [6], 374 nM. The GI50 in assay [7] was 3.36 µM; in assay [8], 86.9 µM; in assay [9], over 100000 nM; in assay [10], over 100 µM. Besides, the TGI in [1] was over 100 µM; in assay [2] it was over 100 µM; in assay [3], over 100 µM; in assay [4], over 100 µM; in assay [5], over 100 µM; in assay [6], over 93.6 µM. For the same molecule, the TGI in assay [7], in assay [8], in [9] and in [10] was over 100 µM each time.

Turning to `COc1ccc(Nc2ncccc2C(=O)NCc2cn(Cc3cccc(Oc4ccccc4)c3)nn2)c(OC)c1`, the GI50 was 2990 nM in [1]; 2080 nM in assay [2]; 9610 nM in [3]; 2.64 µM in [4]; 1660 nM in assay [5]; 2550 nM in assay [6]. The GI50 in [7] is 5.58 µM; in [8], 6.72 µM; in [9], 1910 nM; in assay [10], 13.8 µM. Moreover, the TGI in [1] was over 100 µM; in assay [2], over 100 µM; in [3] it was over 100 µM; in [4], over 29 µM; in assay [5], over 100 µM; in assay [6], over 22.7 µM. Moreover, the TGI in assay [7] is over 100 µM; in assay [8] it was over 100 µM; in assay [9], over 74.2 µM; in assay [10] it was over 100 µM.

For the molecule `Cc1cc2nc3c4cc([N+](=O)[O-])ccc4n(CCN(C)C)c3nc2cc1C`, the GI50 in assay [1] is 2000 nM; in assay [2] it was 642 nM; in [3], 579 nM; in [4] it was 0.683 µM; in assay [5], 353 nM; in [6] it was 622 nM. Further, the GI50 in assay [7] was 0.579 µM; in assay [8], 0.651 µM; in assay [9], 650 nM; in assay [10] it was 0.373 µM. Besides, the TGI was 5.85 µM in [1]; 21.3 µM in [2]; 5.49 µM in assay [3]; 2.34 µM in [4]; 2.84 µM in assay [5]; 3.97 µM in assay [6]. The TGI in assay [7] is over 40 µM; in [8] it was 9.82 µM; in assay [9], 2.21 µM; in assay [10], 4.34 µM.

Turning to `Oc1[nH]c2ccccc2c1/C=c1/ccc2c(c1)N=C(c1cc(F)cc(F)c1)N=2`, the GI50 is 2130 nM in assay [1]; 2440 nM in assay [2]; 2630 nM in assay [3]; 5.65 µM in [4]; 2430 nM in assay [5]; 12600 nM in assay [6]. Further, the GI50 in assay [7] is 10.4 µM; in assay [8], 16.8 µM; in assay [9] it was 8200 nM; in [10], 14 µM. Further, the TGI turned out to be 12.1 µM in assay [1]; 6.91 µM in [2]; 17.5 µM in assay [3]; 20.7 µM in [4]; 8.06 µM in [5]; 40.5 µM in [6]. The TGI is 25.2 µM in assay [7], 36.4 µM in assay [8], 25 µM in assay [9] and 27.7 µM in assay [10].

For the molecule `NNc1ncnc2cccc(Cl)c12`, the TGI in [1] is over 100 µM; in assay [2], over 100 µM; in assay [3], 32 µM; in assay [4] it was over 100 µM; in assay [5], over 100 µM; in [6] it was over 100 µM. For the same molecule, the TGI in [7], in [8], in assay [9] and in assay [10] was over 100 µM throughout.

For the molecule `CC/C(=C(/CC)c1ccc(O)cc1)c1ccc(O)cc1`, the GI50 in assay [1] is 6160 nM; in assay [3] it was 5660 nM; in assay [4], 10.7 µM; in [5], 4920 nM; in [6], 4070 nM; in assay [7], 4.89 µM. Moreover, the GI50 is 14.1 µM in [8], 6720 nM in assay [9] and 14.8 µM in assay [10]. Further, the TGI is 21.5 µM in [1]; 34.7 µM in assay [3]; 23.3 µM in assay [4]; 15.9 µM in [5]; over 100 µM in assay [6]; 20.9 µM in [7]. In addition, the results for the TGI in assay [8], in [9] and in assay [10] were 30.1 µM, 21.8 µM and 37.6 µM, respectively.

`CNC(=O)c1cc(Oc2ccc3nc(NC(=O)Nc4cc(C(F)(F)F)cc(C(F)(F)F)c4)sc3c2)ccn1`: the GI50 is 1340 nM in [1]; 1070 nM in assay [2]; 1280 nM in assay [3]; 1.33 µM in assay [4]; 1120 nM in [5]; 1600 nM in assay [6]. The GI50 was 1.15 µM in assay [7], 1.55 µM in assay [8], 1250 nM in assay [9] and 1.67 µM in assay [10]. Further, the TGI was 3.07 µM in [1]; 5.83 µM in assay [2]; 4.56 µM in [3]; 3.23 µM in assay [4]; 2.46 µM in assay [5]; 4.17 µM in assay [6]. In addition, the TGI stood at 2.8 µM in [7], 3.52 µM in [8], 2.99 µM in assay [9] and 3.35 µM in [10].
